Experimental data taken from publication PMC11724075, “Small-molecule-induced ERBB4 activation to treat heart failure” (Nature Communications, 2025).
Several values for one entry are separate records, joined by “and”; a condition that tells them apart may be missing. Equal values may be shown once.

Columns and labels:
[1] = target: T1, ERBB4 receptor (Homo sapiens, UniProt Q15303); assay: Fluorescence-based competition binding assay with F-NRG1 (flow cytometry) on U2OS ERBB4/ERBB4 cells; conditions: for Fluorescence-based competition assay with NRG1 and EF-1 (normalized signal): individual replicates
T1 construct: host or cells: U2OS (osteosarcoma cells), PathHunter engineered line
T1 sequence (Q15303 26-1308): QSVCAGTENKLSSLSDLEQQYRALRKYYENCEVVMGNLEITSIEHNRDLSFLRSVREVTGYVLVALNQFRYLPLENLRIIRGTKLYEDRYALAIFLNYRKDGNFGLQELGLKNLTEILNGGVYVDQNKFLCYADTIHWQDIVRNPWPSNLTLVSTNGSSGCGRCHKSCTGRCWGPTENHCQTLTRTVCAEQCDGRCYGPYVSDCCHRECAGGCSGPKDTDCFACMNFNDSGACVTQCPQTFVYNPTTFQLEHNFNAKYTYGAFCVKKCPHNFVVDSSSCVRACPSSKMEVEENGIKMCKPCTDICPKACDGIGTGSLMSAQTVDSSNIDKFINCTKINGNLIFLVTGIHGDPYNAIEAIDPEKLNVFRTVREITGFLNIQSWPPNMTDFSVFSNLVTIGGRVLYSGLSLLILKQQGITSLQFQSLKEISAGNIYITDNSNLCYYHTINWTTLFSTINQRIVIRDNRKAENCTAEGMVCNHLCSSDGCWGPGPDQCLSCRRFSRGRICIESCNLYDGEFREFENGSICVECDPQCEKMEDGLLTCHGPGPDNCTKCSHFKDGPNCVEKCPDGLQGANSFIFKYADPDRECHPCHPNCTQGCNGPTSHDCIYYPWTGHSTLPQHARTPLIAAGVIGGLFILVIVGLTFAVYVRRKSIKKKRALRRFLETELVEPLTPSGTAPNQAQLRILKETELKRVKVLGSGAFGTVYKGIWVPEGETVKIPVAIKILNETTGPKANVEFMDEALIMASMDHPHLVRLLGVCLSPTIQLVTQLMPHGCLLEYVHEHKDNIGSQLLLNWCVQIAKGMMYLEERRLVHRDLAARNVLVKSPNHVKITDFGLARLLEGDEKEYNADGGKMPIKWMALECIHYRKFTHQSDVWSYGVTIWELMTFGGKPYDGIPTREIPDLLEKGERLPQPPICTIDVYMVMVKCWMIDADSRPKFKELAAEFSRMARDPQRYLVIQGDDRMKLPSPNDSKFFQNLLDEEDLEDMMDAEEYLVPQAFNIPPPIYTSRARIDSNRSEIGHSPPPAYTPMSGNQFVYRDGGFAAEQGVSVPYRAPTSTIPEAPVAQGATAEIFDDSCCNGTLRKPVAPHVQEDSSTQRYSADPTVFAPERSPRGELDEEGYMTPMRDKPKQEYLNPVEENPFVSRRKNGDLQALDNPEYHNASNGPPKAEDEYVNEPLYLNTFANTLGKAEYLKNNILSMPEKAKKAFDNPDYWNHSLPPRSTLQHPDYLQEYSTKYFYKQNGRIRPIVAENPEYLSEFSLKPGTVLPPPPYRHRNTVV
T1 sequence (Q15303 26-1308): as above
Experimental: NRG1 was dissolved in PBS at a concentration of 1 mg/mL and labeled with Alexa Fluor 488 using the Alexa Fluor 488 microscale protein labeling kit (Thermo Fisher Scientific, A30006). A Bio-gel P-4 (Bio-Rad, 1504124) fine resin suspended in PBS and a dye:protein molar ratio of 5 was used to purify the labeled NRG1 according to the manufacturer’s instructions. Fluorescent labeling was evaluated by performing a dose-response experiment using F-NRG1 (1–1000 nM) on the U2OS ERBB4/ERBB4 dimerization cell line. Next, the same cell line was used to perform a competition binding assay with F-NRG1 using flow cytometry. Cells were plated in transparent U-bottom 96-well plates (Greiner Bio-One, M9436) at 5 × 10^5 cells/mL in 50 μL ice-cold buffer (PBS with 0.1% bovine serum albumin (BSA; Sigma-Aldrich, A7906) and 0.05% sodium azide (Sigma-Aldrich, S2002)). Next, cells were centrifuged at 17,968 × g for 4 min at RT and the supernatants were discarded. The cell pellets were washed with 50 μL ice-cold buffer by gently pipetting up and down. Centrifugation and washing were repeated, and the supernatants were discarded. For the competition assay between NRG1 and F-NRG1, cells were treated with NRG1 (1–100 nM) and F-NRG1 (30 nM). […] After gentle mixing of each sample, the plate was incubated for 1 h at 4 °C on a microplate shaker. Next, the plate was centrifuged at 17,968 × g for 4 min at RT and the supernatants were discarded. The cells were then washed with 100 μL ice-cold buffer, pelleted by centrifugation and washed again. The supernatants were discarded and 100 μL ice-cold buffer was added to the cell pellets and pipetted up and down to generate single-cell suspensions. These suspensions were transferred to 5-mL polystyrene round-bottom tubes, kept on ice, and exposed to minimum light until flow cytometric analysis (BD Accuri C6, BD Biosciences). Unstained cells were used to set the parameters of the flow cytometer.
Supplementary Figure 3. Receptor binding assay. (a) Fluorescence-based competition assay between […]
The Y-axis represents the […]
percentage of specific binding of F-NRG1, the x-axis represents the molar concentration of unlabeled […]
(b) DRC showing t he effect of NRG1 (full line with full circle) on the […]
1x10-6 M NRG1; n=5 biological replicates for NRG1 + EF -1 10 µM for all concentrations of NRG1, except […]
concentrations of NRG1, except n=2 for 3x10-7 M and 1x10-6 M NRG1). All data are presented as mean ± SD. Source data are provided as a Source Data file . CPD, compound; DRC; dose response curve; FC, fold change; F-NRG1, fluorescent ly labeled NRG1; M, molar concentration; NRG1, neuregulin-1; Veh, […]

[2] = system: Akt phosphorylation (pAkt/Akt); assay: Western blot pAkt/Akt in iAMs; format: cell-based, rat; conditions: for pAkt/Akt, relative to vehicle of the same time point: iAMs, single replicates; for phosphorylation of Akt in iAMs (in words): NRG1 10 nM or EF-1 32 µM
Experimental: Hearts of the aforementioned transgenic mice were removed immediately after the animals had been killed. Cells and heart tissue were collected in RIPA lysis buffer (Thermo Fisher Scientific, 89900) supplemented with protease inhibitors (Merck, 11836153001) and phosphatase inhibitors (Merck, 4906845001) and the lysates were centrifuged at 14,000 × g for 10 min. The supernatants were collected, supplemented with sample buffer, and incubated at 95 °C for 5 min. Protein quantification was done with Pierce^TM BCA Protein Assay Kits (Thermo Fisher, 23227) according to the manufacturer’s instructions. Equal protein amounts of clarified lysates (20 µg) were subsequently separated by sodium dodecyl sulfate (SDS) polyacrylamide gel electrophoresis (165 V, 400 mA, 60 min) and transferred onto polyvinylidene fluoride membranes by electroblotting (100 V, 400 mA, 90 min). Next, the membranes were incubated for 1 h with Li-Cor blocking buffer (Li-Cor, 927-60001) at RT in Tris-buffered saline (TBS), supplemented with 0.1% Tween (BIO-RAD, 1706531). Next, primary antibodies were added (see below and Table 1a) in Li-Cor blocking buffer supplemented with 0.1% Tween, and the membranes were incubated overnight at 4 °C on a shaker. Following washing with TBS-0.1% Tween, the membranes were incubated for 1 h at RT with corresponding IRDye-conjugated secondary antibodies (See below and Table 1b) in Li-Cor blocking buffer supplemented with […] and 0.1% Tween. The membrane was visualized with the Odessey imaging system.

O=C(NC1CC1)C(Sc1nc2ccccc2c(=O)n1C1CCCC1)c1ccccc1 (centres unmarked) [EF-1]
competition with F-NRG1 binding (in words) ([1]; EF-1 0.1–100 μM, 30 nM F-NRG1): did not reduce binding of F-NRG1 | Fluorescence-based competition assay with NRG1 and EF-1 (normalized signal) ([1]; concentration 100 pM): 100 | Fluorescence-based competition assay with NRG1 and EF-1 (normalized signal) ([1]; concentration 1e-7 M): 100 and 98 and 104 | Fluorescence-based competition assay with NRG1 and EF-1 (normalized signal) ([1]; concentration 1e-6 M): 102 and 93 and 105 | Fluorescence-based competition assay with NRG1 and EF-1 (normalized signal) ([1]; concentration 1e-5 M): 98 (2×) and 92 | Fluorescence-based competition assay with NRG1 and EF-1 (normalized signal) ([1]; concentration 0.0001 M): 94 (2×) and 95 | time of peak Akt phosphorylation ([2]; EF-1): 2 h | pAkt/Akt, relative to vehicle of the same time point ([2]; EF-1 32 µM, 0 minutes): 0.748 and 0.7404 and 0.672 and 0.9718 | pAkt/Akt, relative to vehicle of the same time point ([2]; EF-1 32 µM, 15 minutes): 0.8783 and 0.9705 and 0.9844 and 0.887 | pAkt/Akt, relative to vehicle of the same time point ([2]; EF-1 32 µM, 60 minutes): 1.284 and 1.335 and 1.4576 and 1.506 | pAkt/Akt, relative to vehicle of the same time point ([2]; EF-1 32 µM, 120 minutes): 2.136 and 1.473 and 2.15 and 1.815 | pAkt/Akt, relative to vehicle of the same time point ([2]; EF-1 32 µM, 240 minutes): 2.021 and 1.657 and 2.184 and 2.136 | phosphorylation of Akt in iAMs (in words) [2]: time-dependent phosphorylation of Akt

neuregulin-1 [NRG1]
IC50 ([1]; 30 nM F-NRG1, U2OS ERBB4/ERBB4 cells, read-out: IC50, reduction of binding of fluorescent NRG1 (F-NRG1) to the ERBB4 receptor): 32 nM | Fluorescence-based competition assay with NRG1 and EF-1 (normalized signal) ([1]; concentration 100 pM): 100 | Fluorescence-based competition assay with NRG1 and EF-1 (normalized signal) ([1]; concentration 1e-9 M): 68.5222 and 84.1596 and 93.8458 and 74.5974 and 128.088 and 100 | Fluorescence-based competition assay with NRG1 and EF-1 (normalized signal) ([1]; concentration 3e-9 M): 80.2455 and 83.5978 and 102.302 and 89.9396 and 83.9805 and 87.652 | Fluorescence-based competition assay with NRG1 and EF-1 (normalized signal) ([1]; concentration 1e-8 M): 67.9682 and 69.1706 and 85.6667 and 81.6967 | Fluorescence-based competition assay with NRG1 and EF-1 (normalized signal) ([1]; concentration 3e-8 M): 77.0259 and 43.4293 and 100.206 and 81.3756 and 87.2588 and 82.6252 and 67.1018 and 62.6829 and 44.3344 and 108.803 | Fluorescence-based competition assay with NRG1 and EF-1 (normalized signal) ([1]; concentration 5e-8 M): 65.1587 and 61.7658 and 51.2875 and 66.8315 | Fluorescence-based competition assay with NRG1 and EF-1 (normalized signal) ([1]; concentration 7.5e-8 M): 7.1162 and 78.7156 and 54.3916 and 66.0513 and 10.1361 and 60.285 and -8.7833 and 64.1512 | Fluorescence-based competition assay with NRG1 and EF-1 (normalized signal) ([1]; concentration 9e-8 M): 47.1877 and 5.376 and 43.6793 | Fluorescence-based competition assay with NRG1 and EF-1 (normalized signal) ([1]; concentration 1e-7 M): 0 | phosphorylation of Akt in iAMs (in words) [2]: significant increase in phosphorylated Akt levels after already 15 minutes | pAkt/Akt, relative to vehicle of the same time point ([2]; NRG1 10 nM, 0 minutes): 1.052 and 0.8332 and 0.8199 | pAkt/Akt, relative to vehicle of the same time point ([2]; NRG1 10 nM, 15 minutes): 5.096 and 6.809 and 6.931 | pAkt/Akt, relative to vehicle of the same time point ([2]; NRG1 10 nM, 60 minutes): 4.363 and 4.094 and 3.405 | pAkt/Akt, relative to vehicle of the same time point ([2]; NRG1 10 nM, 120 minutes): 2.7652 and 3.7648 and 2.637 | pAkt/Akt, relative to vehicle of the same time point ([2]; NRG1 10 nM, 240 minutes): 2.317 and 2.06
